Data published in patent publication US10034915B2, “Small heat shock proteins and active fragments thereof as a therapy for inflammation and ischemia” (The Board of Trustees of the Leland Stanford Junior …, priority 2011, dated 2018).
“Also recorded” adds a separate entry of the source.

B1: myotonic dystrophy protein kinase binding protein, MKBP (protein, UniProt Q16082 1-182, looked up)
Heat shock protein beta-2: MSGRSVPHAHPATAEYEFANPSRLGEQRFGEGLLPEEILTPTLYHGYYVRPRAAPAGEGSRAGASELRLSEGKFQAFLDVSHFTPDEVTVRTVDNLLEVSARHPQRLDRHGFVSREFCRTYVLPADVDPWRVRAALSHDGILNLEAPRGGRHLDTEVNEVYISLLPAPPDPEEEEEAAIVEP
notes: recombinant human small heat shock protein
B2: HSPB3: recombinant human small heat shock protein (protein, UniProt Q12988 1-150, looked up)
Heat shock protein beta-3: MAKIILRHLIEIPVRYQEEFEARGLEDCRLDHALYALPGPTIVDLRKTRAAQSPPVDSAAETPPREGKSHFQILLDVVQFLPEDIIIQTFEGWLLIKAQHGTRMDEHGFISRSFTRQYKLPDGVEIKDLSAVLCHDGILVVEVKDPVGTK
B3: Hsp22 (protein, UniProt O14558 1-160, looked up)
Heat shock protein beta-6: MEIPVPVQPSWLRRASAPLPGLSAPGRLFDQRFGEGLLEAELAALCPTTLAPYYLRAPSVALPVAQVPTDPGHFSVLLDVKHFSPEEIAVKVVGEHVEVHARHEERPDEHGFVAREFHRRYRLPPGVDPAAVTSALSPEGVLSIQAAPASAQAPPPAAAK
notes: as for B1
B4: Hsp20 (protein, UniProt Q9UJY1 1-196, looked up)
Heat shock protein beta-8: MADGQMPFSCHYPSRLRRDPFRDSPLSSRLLDDGFGMDPFPDDLTASWPDWALPRLSSAWPGTLRSGMVPRGPTATARFGVPAEGRTPPPFPGEPWKVCVNVHSFKPEELMVKTKDGYVEVSGKHEEKQQEGGIVSKNFTKKIQLPAEVDPVTVFASLSPEGLLIIEAPQVPPYSTFGESSFNNELPQDSQEVTCT
notes: as for B1
B5: HSPB9: recombinant human small heat shock protein (protein, UniProt Q9BQS6 1-159, looked up)
Heat shock protein beta-9: MQRVGNTFSNESRVASRCPSVGLAERNRVATMPVRLLRDSPAAQEDNDHARDGFQMKLDAHGFAPEELVVQVDGQWLMVTGQQQLDVRDPERVSYRMSQKVHRKMLPSNLSPTAMTCCLTPSGQLWVRGQCVALALPEAQTGPSPRLGSLGSKASNLTR
B6: Arg120Gly: naturally occurring mutated HSPB5, arginine to glycine at amino acid position 120 (protein, UniProt P02511 1-175, looked up, variant R120G)
Alpha-crystallin B chain: MDIAIHHPWIRRPFFPFHSPSRLFDQFFGEHLLESDLFPTSTSLSPFYLRPPSFLRAPSWFDTGLSEMRLEKDRFSVNLDVKHFSPEELKVKVLGDVIEVHGKHEERQDEHGFISREFHGKYRIPADVDPLTITSSLSSDGVLTVNGPRKQVSGPERTIPITREEKPAVTAAPKK

What was measured:
[1] = tested on: EAE mice; assay: EAE in 129Sv WT mice immunized with MOG35-55/CFA, clinical scoring; type: in vivo, mouse; details: for therapeutic efficacy of peptide in EAE (clinical scores): peptide every other day from peak of disease (10 μg, or 1 μg equimolar to 10 μg protein); for AREA UNDER THE CURVE (amount higher than HSPB5 normalized to PBS): average EAE scores, peptide every other day from peak of disease, 129Sv WT mice, n=5 per group; for EAE clinical scores over the course of the whole experiment (area under the curve): 10 μg sHSP protein IP every other day from peak of disease; for EAE clinical scores over the course of the whole experiment (area under the curve) / clinical paralysis / EAE clinical scores: vs PBS; for clinical paralysis / EAE clinical scores: 10 μg sHSP protein IP every other day starting at the peak of disease
Description: To investigate if the therapeutic efficacy of HSPB5 is a common feature of the whole family of small heat shock proteins, we expressed recombinant HSPB1, HSPB4, and HSPB5. We then treated EAE mice every other day starting at the peak of disease, when clinical paralysis is apparent, with an intraperitoneal (IP) administration of 10 μg of either HSPB1, HSPB4, HSPB5, or PBS as the vehicle control. […] Treating mice in vivo with HSPB1, HSPB4, or HSPB5 led to a reduction in the production of pro-inflammatory cytokines by MOG stimulated splenocytes taken from MOG immunized mice (FIG. 1c). Improvement of the clinical score was dependent on continued dosing of the sHSP. After dosing was stopped, symptoms returned, and paralysis worsened after 96 hours.
Therapeutic Peptides from HSPB5 in EAE. […] We made a series of overlapping, 15-mer peptide fragments of HSPB5 and treated mice at the peak of disease with 10 μg of each peptide every other day, using HSPB5 as a positive control and PBS as a negative control.
EAE induction and scoring. Mice were immunized subcutaneously with 100 μL of myelin oligodendrocyte glycoprotein (MOG) peptide 35-55 (2 mg/mL) and Complete Freund's adjuvant (CFA) (4 mg/mL) on Day 0. […] Mice were randomized at the peak of disease into the treatment groups where they received 10 ug/200 μL of sHSP, 1 μg/200 uL of sHSP peptide, or 200 μL of PBS (vehicle) every other day. Mice were scored every day on a clinical scoring system: 0, healthy mouse; 1, limp tail; 2, weak hindlimbs; 3, complete hindlimb paralysis; 4, weak forelimbs and paralyzed hindlimbs; 5, dead.

[2] = tested on: pro-inflammatory cytokines of MOG stimulated splenocytes; assay: Peripheral immune cell activation: cytokine production by MOG stimulated splenocytes of treated MOG immunized mice (ELISA); parameters: species or system mouse; details: mice treated in vivo; splenocytes from MOG immunized mice
Description: Peripheral immune cell activation and cytokine analysis. Spleens and lymph nodes were isolated from mice 9 days after immunization with MOG35-55 and CFA. Spleens were mechanically disrupted to isolate single cell splencytes suspension. Cells were cultured in flat bottomed, 96-well plates in media (RPMI 1640 supplemented with […] L-glutamine, 1 mM sodium pyruvate, 0.1 mM non-essential amino acids, 100 U/mL penicillin, 0.1 mg/mL streptomycin, 0.5 uM 2-mercaptoethanol, and 10% fetal calf serum). Cells were stimulated with MOG35-55 (5 ug/mL, 10 ug/mL, and 20 ug/mL). For all activation assays, splenocytes were pooled from three mice per group and triplicate wells were plated. Supernatants of cells were collected at the time of peak production for each cytokine (48 hrs: IL-2, IL-12p40, IL-6; 72 hrs: TNFα and IFNγ; 96 hrs: IL-17; 120 hrs: IL-10). Cytokines were measured in the supernatants using anti-mouse OPTEIA ELISA kits (BD Pharmingen for IFNγ, IL-10, IL-2, IL-6, and IL-12p40; R&D Systems for IL-17 and TNFα).

[3] = tested on: mice with EAE; assay: EAE in C57BL/6J mice (MOG35-55/CFA, pertussis toxin), neurological impairment scoring; type: in vivo, mouse; details: intraperitoneal 10-50 μg every other day starting at the peak of disease
Description: It was tested if the chaperone function of residues 73-92 of HspB5 were capable of reducing the symptoms of experimental allergic encephalomyelist (EAE), by inducing EAE in 9-week old female C57BL/6J by immunized subcutaneously with an emulsion containing 200 μg myelin oligodendrocyte glycoprotein 35-55 (MOG35-55; […] (SEQ ID NO:24)) in saline and an equal volume of complete Freund's adjuvant. Intraperitoneal injection of pertussis toxin at 0 and 48 h post-immunization results in paralysis beginning at day 12.

[4] = tested on: partially denatured proteins; details: in vitro, literature; cited from earlier work

Molecule | AREA UNDER THE CURVE (amount higher than HSPB5 normalized to PBS) [1] | clinical paralysis / EAE clinical scores [1] | also measured
DKFVIFLDVKHFSPEDLTVK [HSPB4 73-92] | – | – | therapeutic efficacy of peptide in EAE (clinical scores) [1]: therapeutic in EAE; therapeutic efficacy of peptide in EAE (clinical scores) ([1]; listed as HSPB4 73-93): as therapeutic as full length proteins; production of pro-inflammatory cytokines by MOG stimulated splenocytes [2]: decrease peripheral immune activation
DRWRVSLDVNHFAPDELTVK [HSPB1 73-92] | – | – | therapeutic efficacy of peptide in EAE (clinical scores) [1]: therapeutic in EAE; therapeutic efficacy of peptide in EAE (clinical scores) ([1]; listed as HSPB1 73-93): as therapeutic as full length proteins; production of pro-inflammatory cytokines by MOG stimulated splenocytes [2]: decrease peripheral immune activation
EKDRFSVNLDVKHFS (listed as Homo sapiens) [HSPB5 peptide 71-85] | 0.06 | – | therapeutic efficacy of peptide in EAE (clinical scores) [1]: marked therapeutic efficacy
HGFISREFHRKYRIP (listed as Homo sapiens) [HSPB5 peptide 111-125] | 0.33 | – | –
HLLESDLFPTSTSLS (listed as Homo sapiens) [HSPB5 peptide 31-45] | 0.33 | – | –
HSP27 [HSPB1] | – | significantly ameliorated clinical paralysis; also recorded: therapeutic | EAE clinical scores over the course of the whole experiment (area under the curve) [1]: significantly improved; production of pro-inflammatory cytokines by MOG stimulated splenocytes [2]: reduction; clinical paralysis / clinical scores of mice with EAE [3]: significant reduction of clinical paralysis
HSPB7: recombinant human small heat shock protein | – | ameliorated EAE | –
ITREEKPAVTAAPKK (listed as Homo sapiens) [HSPB5 peptide 161-175] | 0.08 | – | therapeutic efficacy of peptide in EAE (clinical scores) [1]: therapeutic
LTITSSLSSDGVLTV (listed as Homo sapiens) [HSPB5 peptide 131-145] | 0.08 | – | therapeutic efficacy of peptide in EAE (clinical scores) [1]: therapeutic
PPSFLRAPSWFDTGL (listed as Homo sapiens) [HSPB5 peptide 51-65] | 0.10 | – | –
QVSGPERTIPITREE (listed as Homo sapiens) [HSPB5 peptide 151-165] | 0.29 | – | –
RRPFFPFHSPSRLFD (listed as Homo sapiens) [HSPB5 peptide 11-25] | −0.11 | – | therapeutic efficacy of peptide in EAE (clinical scores) [1]: therapeutic
SRLFDQFFGEHLLES (listed as Homo sapiens) [HSPB5 peptide 21-35] | 0.28 | – | –
STSLSPFYLRPPSFL (listed as Homo sapiens) [HSPB5 peptide 41-55] | 0.28 | – | –
αA-crystallin [HSPB4] | – | significantly ameliorated clinical paralysis; also recorded: therapeutic | EAE clinical scores over the course of the whole experiment (area under the curve) [1]: significantly improved; production of pro-inflammatory cytokines by MOG stimulated splenocytes [2]: reduction; clinical paralysis / clinical scores of mice with EAE [3]: significant reduction of clinical paralysis
B1 | – | ameliorated EAE | –
B2 | – | ameliorated EAE | –
B3 | – | ameliorated EAE | –
B4 | – | ameliorated EAE | –
B5 | – | ameliorated EAE | –
B6 | – | did improve clinical scores; also recorded: ameliorated EAE just as well as HSPB5 | production of pro-inflammatory cytokines by MOG stimulated splenocytes [2]: reduction; also recorded: suppressed; molecular chaperone activity [4]: partial loss of molecular chaperone activity
